Measurements reported in patent US8796275B2, “Anti-malarial compounds” (The Trustees of the University of Pennsylvania, priority 2008, dated 2014).
Like-named read-outs stand apart in the source and are kept apart here.

Columns and labels:
[1] = target: 3D7 strain of P. falciparum; assay: High throughput quantitative parasite growth assay, luciferase expressing parasites; format: cell-based, Plasmodium falciparum; conditions: luciferase readout, approximately 60 hours growth
Experimental: Numerous compounds were initially screened using a high throughput quantitative parasite growth assay that makes use of a strain of parasites expressing a cytoplasmic firefly luciferase (obtained from Dr. Kirk Deitsch, Cornell Medical College). These parasites were transfected with a vector containing the firefly luciferase gene using the malarial HRPII promoter. To grow parasites, culture dishes ranging from 96 well plates to 30 ml dishes were used. […] Parasites were cultured in human RBCs under an atmosphere of 5% O2/7% CO2/88% N2 in RPMI 1640 medium supplemented with 25 mM Hepes, 30 mg/L hypoxanthine, 0.225% (w/v) NaHCO3 and 0.5% (w/v) Albumax II (Life Technologies, Grand Island, N.Y.).
A standard luminescent readout was used to measure the growth of parasites. Parasites were grown under normal conditions, lysed in the presence of the luminescence reagents (Bright Glo, Promega) and then measured. To initially test for growth, luciferase expressing parasites were synchronized using serial sorbitol treatments and then parasitemia, the percentage of RBCS infected with parasites, was adjusted using uninfected RBCs. 100 μl of total media was used in a 96 well format. Parasitized RBCs were incubated in 96 well plates at 37° C. and gassed with 5% CO2, 5% O2, 90% N2. Parasites were allowed to grow for approximately 60 hours, until they successfully divided, ruptured and reinvaded new RBCs. At 10-15 hours post invasion, the cells were lysed, and luciferase levels were measured using an Analyst HT luminometer (Molecular Devices).

P. falciparum = assay: Anti-parasitic activity in vitro, human red blood cell assay; format: cell-based, Plasmodium falciparum
Experimental: Anti-parasitic activities were measured in vitro using a human red blood cell assay. A single P. falciparum organism typically infects an erythrocyte and produces 24 progeny within 48 hours following infection. The progeny are released and rapidly infect neighboring red blood cells. […] Observations were also made during the 48 hour incubation period to assess the susceptibility of the parasite during lifecycle stages inside and outside the host erythrocyte. […] One goal of targeting parasite membranes, rather than proteins or metabolic pathways, represents a highly innovative and novel strategy for treating parasitic diseases and distinguishes this approach from most others in this field.

P. falciparum DD2 = assay: microbe, parasite or virus in culture; format: cell-based, Plasmodium falciparum; conditions: for IC50: Plasmodium falciparum, DD2, read-out: IC50 (DD2)
Excerpt: (§1) Flow cytometry was used for quantitation of parasitemia using SYOX Green on an LSRII.

P. falciparum 3D7 = assay: Cultures of P. falciparum 3D7, flow cytometry quantitation of parasitemia; format: cell-based; conditions: Plasmodium falciparum
Excerpt: as §1

[2] = system: uninfected red blood cells
food vacuole = assay: Food vacuole integrity, parasites expressing plasmepsin II-YFP, fluorescence microscopy; format: cell-based, Plasmodium falciparum; conditions: plasmepsin II-YFP marker
[3] = Plasmodium falciparum, 3D7, 60 h

SMILES | IC50 [1, 3] [nM] | other results
NCCCc1ccc(-c2ccc3sc4ccc(-c5ccc(CCCN)cc5)cc4c3c2)cc1 [Compound 130] | – | IC50 [1]: 2560 nM
NCCCc1cccc(-c2ccc3oc4ccc(-c5cccc(CCCN)c5)cc4c3c2)c1 [Compound 120] | 604 | –
NCCCc1cccc(-c2ccc3sc4ccc(-c5cccc(CCCN)c5)cc4c3c2)c1 [Compound 116] | 318 | IC50 (P. falciparum; Plasmodium falciparum, Erythrocyte, minimum concentration resulting in 50% killing, 48 hour incubation): 50 nM; IC50 (μM) (P. falciparum; minimum concentration resulting in 50% killing, 48 hour incubation): sub-μM; IC100 (P. falciparum; minimum concentration resulting in 100% killing, 48 hour incubation): 0.850 µM; % Kill @ 10 μM (P. falciparum; single concentration 10 μM): 100%
CCN(CC)CCCC(C)Nc1ccnc2cc(Cl)ccc12 (stereo not shown) [chloroquine, reference compound] | – | resistance of DD2 strain relative to 3D7 strain (P. falciparum DD2; DD2 vs 3D7): 4 times; IC50 (P. falciparum DD2): 80 nM; IC50 (P. falciparum 3D7; 3D7, read-out: IC50 (3D7)): 20 nM
NCCN1CC=C(c2ccc3sc4ccc(C5=CCN(CCN)CC5)cc4c3c2)CC1 [Compound 136] | 958 | –
N=C(N)NCCCCC(=O)Nc1cc(Br)cc(NC(=O)c2cc(C(=O)Nc3cc(Br)cc(NC(=O)CCCCNC(=N)N)c3SCCNC=O)ncn2)c1SCCNC=O [Compound 125] | 286 | –
NCCc1cccc(-c2ccc3c(c2)c2cc(-c4cccc(CCN)c4)ccc2[s+]3[O-])c1 [Compound 134] | 2440 | –
c1cc(-c2ccc3sc4ccc(-c5ccnc(N6CCNCC6)c5)cc4c3c2)cc(N2CCNCC2)n1 [Compound 110] | 584 | –
C1=C(c2ccc3sc4ccc(C5=CCNCC5)cc4c3c2)CCNC1 [Compound 138] | 213 | –
CCn1c2ccc(-c3cccc(CCCN)c3)cc2c2cc(-c3cccc(CCCN)c3)ccc21 [Compound 137] | 604 | –
NCc1cccc(-c2ccc3[nH]c4ccc(-c5cccc(CN)c5)cc4c3c2)c1 [Compound 118] | 364 | –
c1cc(N2CCNCC2)ncc1-c1ccc2sc3ccc(-c4ccc(N5CCNCC5)nc4)cc3c2c1 [Compound 117] | 301 | –
COc1ccc(CCN)cc1-c1ccc2sc3ccc(-c4cc(CCN)ccc4OC)cc3c2c1 [Compound 135] | 108 | –
c1cc(N2CCNCC2)ccc1-c1ccc2sc3ccc(-c4ccc(N5CCNCC5)cc4)cc3c2c1 [Compound 132] | 236 | –
NCCNCc1cncc(-c2ccc3sc4ccc(-c5cncc(CNCCN)c5)cc4c3c2)c1 [Compound 140] | 1670 | –
NCCCc1cccc(-c2ccc3c(c2)-c2cc(-c4cccc(CCCN)c4)ccc2S3(=O)=O)c1 [Compound 141] | – | IC50 [1]: 1340 nM
NCc1cccc(-c2ccc3sc4ccc(-c5cccc(CN)c5)cc4c3c2)c1 [Compound 131] | – | IC50 [1]: 235 nM
N=C(N)NCCCc1cccc(-c2ccc3sc4ccc(-c5cccc(CCCNC(=N)N)c5)cc4c3c2)c1 [Compound 139] | 1170 | –
NCCCc1cccc(-c2ccc3c(c2)-c2cc(-c4cccc(CCCN)c4)ccc2S3(=O)=O)c1 [Compound 133] | 2030 | –
NCCc1cccc(-c2ccc3sc4ccc(-c5cccc(CCN)c5)cc4c3c2)c1 [Compound 106] | 1150 | hemolytic [2]: Neither compound, however, was hemolytic; effectiveness in strain DD2 (P. falciparum DD2; DD2 strain): effective; IC50 (P. falciparum DD2): 100 nM; cytotoxicity (human HepG2 cells): 40 to 50 µM; disruption of food vacuoles (food vacuole): disrupted food vacuoles; IC50 (P. falciparum 3D7; 3D7 strain, read-out: IC50 (3D7)): 150 nM
NCCCc1cccc(-c2ccc3[nH]c4ccc(-c5cccc(CCCN)c5)cc4c3c2)c1 [Compound 119] | 1860 | –
C[C@H]1[C@H](OC(=O)CCC(=O)O)O[C@@H]2O[C@@]3(C)CC[C@H]4[C@H](C)CC[C@@H]1[C@@]24OO3 [Artesunate, artesunate, reference compound] | 9 | –
